Experimental data: patent publication US20090258878A1, “TRIAZINE DERIVATIVE COMPOUND AND COMPOSITION FOR TREATING CANCER […]” (priority 2006, published 2009)
Like-named read-outs stand apart in the source and are kept apart here.

Legend:
[1] = test system: MCF-7 breast cancer cell line; conditions: for growth inhibition effect on cell (FIG. 1): 2 days
Experimental: 2×10^5 MCF-7 cells were respectively distributed into each 6 well plates and grown. Thereafter, Dan-BC1, Dan-BC2 and Dan-BC3 compounds were diluted to be dose concentration of 10, 50 and 100 μM, and after treating them into cancers for 2 days according to the concentration, they were compared by measuring the cell viability with those of drug-untreated group.

MCF-7 tumor cells = conditions: for Height of breast cancer mass / Major Axis of breast cancer mass / Minor Axis of breast cancer mass: nude mouse; for in vivo anticancer effect regarding breast cancer formed in nude mouse: two administrations of 500 μM, vs negative control mass size
Experimental: Weekly administration of experiment compound was initiated 2 days after measurement of tumor size. The concentration of the first administration was 500 μM, respectively.

[2] = test system: breast cancers naturally formed in female mouse transformed to form cancer (HCCR-1); conditions: for anticancer effect against breast cancer formed in transformed mouse in vivo / breast cancer after one administration: 100 μM; for anti-cancer effect on transformed animal model, rank order (FIG. 11) / formation of cancer again at second injection: 100 μM weekly; for breast cancer after one administration: transformed mouse with naturally formed breast cancer; for formation of cancer again at second injection: transformed mouse
Experimental: Anticancer effect of Dan-BC1, Dan-BC2 and Dan-BC3 according to the present invention was assessed using the mouse transformed with human proto-oncogene causing cancer which was over-expressed in mammal.
Since the cell line used for the transformed mouse has capacity for forming tumor, it forms a carcinoma such as palpable tumor when transplanted into mammal. Cell line used in the present experiment produces a large quantity of HCCR-1 protein by overexpressing human proto-oncogene (hereafter, HCCR-1), which protein interacts with D52 protein (GenBank Reg. No. NM003288) as reported as being related to cancer (Byrne, J. A. et al., Cancer Res., 55, 2896-2903 (1995); and Bryne, J. A. et al., Oncogene, 16, 873-881 (1998) reference), activates protein Kinases C and Telomerase, incapacitates the function of controlling cell cycle checkpoint, and transforms into malignant tumor though the course of lowering the expression of egr-1 gene.

[3] = 1 week after First Administration, 500 μM
[4] = 1 day before First Administration
[5] = the day of First Administration, 500 μM

| Compound | growth inhibition effect on cell (FIG. 1) ([1]; 10 μM) | growth inhibition effect on cell (FIG. 1) ([1]; 50 μM) | cells survived compared with cells without administration ([1]; 100 μM, 12 hours) | cells survived compared with cells without administration ([1]; 100 μM, 24 hours) | cells survived compared with cells without administration ([1]; 100 μM, 36 hours) | growth inhibition effect on cell (FIG. 1) ([1]; 100 μM) | cells survived compared with cells without administration ([1]; 100 μM, 48 hours) | extinction effect on breast cancer cell in nude mouse, rank order (FIG. 7) (MCF-7 tumor cells; 500 μM) | Height of breast cancer mass (MCF-7 tumor cells; [3]) [mm] | Major Axis of breast cancer mass (MCF-7 tumor cells; [3]) [mm] | Minor Axis of breast cancer mass (MCF-7 tumor cells; [3]) [mm] | Height of breast cancer mass (MCF-7 tumor cells; [4]) [mm] | Major Axis of breast cancer mass (MCF-7 tumor cells; [4]) [mm] | Minor Axis of breast cancer mass (MCF-7 tumor cells; [4]) [mm] | Height of breast cancer mass (MCF-7 tumor cells; [5]) [mm] | Major Axis of breast cancer mass (MCF-7 tumor cells; [5]) [mm] | Minor Axis of breast cancer mass (MCF-7 tumor cells; [5]) [mm] | in vivo anticancer effect regarding breast cancer formed in nude mouse (MCF-7 tumor cells) | anticancer effect against breast cancer formed in transformed mouse in vivo [2] | anti-cancer effect on transformed animal model, rank order (FIG. 11) [2] | further results |
| --- | --- | --- | --- | --- | --- | --- | --- | --- | --- | --- | --- | --- | --- | --- | --- | --- | --- | --- | --- | --- | --- |
| C=CCNc1nc(NCCCC)nc(NCc2ccc(C(=O)NCCOCCOCCNC(=O)c3ccccc3)cc2)n1 [Dan-BC1] | weak growth inhibition effect on cell | no significant growth inhibition effect on cell | about 68% | about 37% | about 27% | an extinct effect on cell was apparent to the naked eye | all cells reached extinction | high in case of Dan-BC1, Dan-BC3 compound, and Dan-BC2 compound in that order | 2 | 10 | 8 | 2 | 4 | 2 | 5 | 12 | 10 | strong in vivo anticancer effect | strong anticancer effect | the most superior | breast cancer after one administration [2]: extinction of breast cancer was resulted even with administration of only once |
| CCCCNc1nc(NCc2ccncc2)nc(NCc2ccc(C(=O)NCCOCCOCCNC(=O)c3ccccc3)cc2)n1 [Dan-BC2] | weak growth inhibition effect on cell | no significant growth inhibition effect on cell | about 75% | about 49% | about 33% | an extinct effect on cell was apparent to the naked eye | 20% | high in case of Dan-BC1, Dan-BC3 compound, and Dan-BC2 compound in that order | 3 | 15 | 10 | 2 | 4 | 2 | 5 | 12 | 10 | strong in vivo anticancer effect | showed anticancer effect | as an order of the next Dan-BC3, and Dan-BC2 | formation of cancer again at second injection [2]: formation of cancer was induced again at the time of the 2nd injection; breast cancer after one administration [2]: breast cancer became extinct |
| CCCCNc1nc(NCc2ccc(C(=O)NCCOCCOCCNC(=O)c3ccccc3)cc2)nc(NC(CC)CC)n1 [Dan-BC3] | weak growth inhibition effect on cell | no significant growth inhibition effect on cell | about 60% | about 37% | about 7% | an extinct effect on cell was apparent to the naked eye | all cells reached extinct | high in case of Dan-BC1, Dan-BC3 compound, and Dan-BC2 compound in that order | 2 | 15 | 10 | 2 | 4 | 2 | 5 | 12 | 7 | strong in vivo anticancer effect | showed anticancer effect | as an order of the next Dan-BC3, and Dan-BC2 | formation of cancer again at second injection [2]: formation of cancer was derived again at the time of the second injection; breast cancer after one administration [2]: breast cancer became extinct |
